In patent publication US8574831B2, “Mutational profiles in HIV-1 reverse transcriptase correlated with phenotypic drug resistance” (Virco N.V., priority 2000, dated 2013):

System: HIV with mutations in the HIV protease sequence
Test: Phenotypic fold resistance to protease inhibitors, protease mutations 84A/84L/84C/54M/54L/54V in a background (Examples 8-13)
Format: cell-based, HIV-1
Experimental: As is the case with the genotyping assays, the recombinant virus assay starts with the amplification of viral target sequences by means of PCR. The amplicons are incorporated into a proviral laboratory clone with sequences homologous to those present in the amplicon deleted. This generates a stock of chimeric viruses. The viruses are tested for their ability to grow in the presence of different concentrations of drugs. Results are obtained by calculating IC50 values for each inhibitor and by reporting the results as IC50 values, expressed in μM concentrations, or by computing the ratio of the IC50 values found for the chimeric virus to the IC50 values found for a wild type susceptible laboratory virus tested in parallel. In the latter case, resistance is expressed as “fold-resistance” compared to a wild-type susceptible HIV-1 strain. In order to meet the need for high-volume testing and a short turn-around time for an individual test, the latest generation of phenotyping assays has undergone further modifications. The use of reporter gene systems for susceptibility testing allows the implementation of laboratory automation and standardization. See Pauwels, et al., J. Virol. Methods 20, 309-321 (1998); Paulous, S., et al., International Workshop on HIV Drug Resistance, Treatment Strategies and Eradication, St. Petersburg, Fla., USA. Abstr. 46 (1997); and Deeks, S. G., et al., 2nd International Workshop on HIV Drug Resistance and Treatment Strategies, Lake Maggiore, Italy. Abstr. 53 (1998).
The ANTIVIROGRAM® assay (Virco) (WO 97/27480) is based on homologous recombination of patient derived HIV-1 gag/PR/RT sequences into a proviral HIV-1 clone correspondingly deleted for the gag/PR/RT sequences. See Pauwels, et al., J. Virol. Methods 20, 309-321 (1998). A similar assay (Phenosense ViroLogic) is based on enzymatic ligation of patient-derived PR/RT sequences into a correspondingly deleted proviral vector carrying an indicator gene, luciferase, inserted in the deleted HIV-1 envelope gene. See Deeks, S. G., et al., 2nd International Workshop on HIV Drug Resistance and Treatment Strategies, Lake Maggiore, Italy. Abstr. 53 (1998). Hertogs et al. Antimicrob. Agents Chemother. 44(3) 568-573 (2000) the disclosures of which are herein incorporated by reference.
The methods of monitoring HIV-1 drug resistance, may also be used in combination with phenotypic drug resistance testing of viral isolates. For example, in one embodiment, a phenotypic test is utilized that is based upon the construction of chimeric HIV-1 strains composed of the protease (PR) and reverse transcriptase (RT) gene sequences which are isolated and amplified from the patient viral RNA. These strains may subsequently be recombined inside CD4+ T cells with a standard laboratory isogenic (HXB2) HIV-1 DNA construct from which the PR/RT gene sequences were deleted. The recombinant strains may then be grown in the presence of the above-mentioned antiviral drugs and the susceptibility of the viral isolates may be expressed as fold-change value of the IC50 of the drug on the patient isolates over the IC50 of the drug on a wild-type laboratory reference strain.

In the case of `CC(C)(C)NC(=O)[C@@H]1CN(Cc2cccnc2)CCN1C[C@@H](O)C[C@@H](Cc1ccccc1)C(=O)N[C@H]1c2ccccc2C[C@H]1O` [Indinavir, indinavir], the “mean fold increase in resistance” value (Table 9 #1, protease genotype WT) is reported as 0.9 fold, the “mean fold increase in resistance” value (Table 9 #2, protease genotype 10I) is reported as 0.7 fold and the “mean fold increase in resistance” value (Table 9 #3, protease genotype 46I) is reported as 0.6 fold. The “mean fold increase in resistance” value (Table 9 #4, protease genotype 46I + 84V) was 2.6 fold, the “mean fold increase in resistance” value (Table 9 #5, protease genotype 46I + 84A) was 26.8 fold and the “mean fold increase in resistance” value (Table 9 #6, protease genotype 10I + 46I) was 2.9 fold. For the same compound, the “mean fold increase in resistance” value (Table 9 #7, protease genotype 10I + 46I + 84V) was 2.4 fold, the “mean fold increase in resistance” value (Table 9 #8, protease genotype 10I + 46I + 84A) was 33.4 fold and the “mean fold increase in resistance” value (Table 9 #9, protease genotype 10L/I + 46I + 84A) was 44.5 fold. For the same compound, the “mean fold increase in resistance” value (Table 9 #10, protease genotype 10I + 46I + 84A) was 26 fold, the “mean fold increase in resistance” value (Table 9 #11, protease genotype 46I + 71V) was 3.7 fold and the “mean fold increase in resistance” value (Table 9 #12, protease genotype 46I + 71V + 84V/I) was 3.1 fold. The “mean fold increase in resistance” value (Table 9 #13, protease genotype 46I + 71V + 84A) was 56.5 fold, the “mean fold increase in resistance” value (Table 9 #14, protease genotype 10F + 46I + 71V) was 22.2 fold and the “mean fold increase in resistance” value (Table 9 #15, protease genotype 10I + 46I + 71V + 84V) was 50.5 fold. The “mean fold increase in resistance” value (Table 9 #16, protease genotype 10I + 46I + 71V + 84A) was 45.9 fold, the “mean fold increase in resistance” value (Table 9 #17, protease genotype 10V + 46I + 71T + 84A) was 57.9 fold and the “mean fold increase in resistance” value (Table 9 #18, protease genotype 10I + 46I + 71V + 77I) was 2.2 fold. For the same compound, the “mean fold increase in resistance” value (Table 9 #19, protease genotype 10I + 46I + 71V + 77I + 84V) was 2.2 fold, the “mean fold increase in resistance” value (Table 9 #20, protease genotype 10I + 46I + 71V + 77I + 84A) was 57.9 fold and the “mean fold increase in resistance” value (Table 9 #21, protease genotype 10I + 33L/I + 46I + 71V + 77V/I + 84A) was 31.4 fold. The “mean fold increase in resistance” value (Table 10 #1, protease genotype 10I + 36I + 71V) was 1.4 fold, the “mean fold increase in resistance” value (Table 10 #2, protease genotype 10I + 36I + 71I + 84V) was 1.0 fold and the “mean fold increase in resistance” value (Table 10 #3, protease genotype 10I + 36I + 71I + 84L) was 3.7 fold. The “mean fold increase in resistance” value (Table 11 #1, protease genotype WT) was 0.9 fold, the “mean fold increase in resistance” value (Table 11 #2, protease genotype 84V) was 0.7 fold and the “mean fold increase in resistance” value (Table 11 #3, protease genotype 84C) was 2.7 fold. For the same compound, the “mean fold increase in resistance” value (Table 11 #4, protease genotype 10I) was 0.7 fold, the “mean fold increase in resistance” value (Table 11 #5, protease genotype 10I + 84V) was 1.8 fold and the “mean fold increase in resistance” value (Table 11 #6, protease genotype 10I + 84C) was 4.3 fold. For the same compound, the “mean fold increase in resistance” value (Table 11 #7, protease genotype 77I) was 0.4 fold, the “mean fold increase in resistance” value (Table 11 #8, protease genotype 77I + 84V) was 2.5 fold and the “mean fold increase in resistance” value (Table 11 #9, protease genotype 77I + 84C) was 3.1 fold. The “mean fold increase in resistance” value (Table 11 #10, protease genotype 77I + 84C) was 3.2 fold, the “mean fold increase in resistance” value (Table 11 #11, protease genotype 10I + 24I + 36I + 46I + 71V + 84C) was 7.5 fold and the “Fold change in IC50” value (Table 12, V19263, genotype 77I) was 0.4 fold. For the same compound, the “Fold change in IC50” value (Table 12, V20160, genotype WT) was 0.9 fold, the “Fold change in IC50” value (Table 12, V021667, genotype 10I) was 0.7 fold and the “Fold change in IC50” value (Table 12, V030496, genotype 10I + 77I) was 0.4 fold. For the same compound, the “Fold change in IC50” value (Table 12, V048869, genotype 10I + 54M + 77I + 90M) was 7.1 fold, the “Fold change in IC50” value (Table 12, V048872, genotype 33F + 54M + 77I + 90M) was 3.2 fold and the “Fold change in IC50” value (Table 12, V048873, genotype 33F + 54M + 77I + 90M) was 1.7 fold. For the same compound, the “Fold change in IC50” value (Table 12, V048877, genotype 10I + 33F + 77I + 90M) was 2.9 fold, the “Fold change in IC50” value (Table 12, V048878, genotype 10I + 33F + 54M + 71V + 77I + 90M) was 5.2 fold and the “Fold change in IC50” value (Table 12, V048879, genotype 10I + 33F + 54M + 71V + 77I + 90M) was 6.5 fold. For the same compound, the “Fold change in IC50” value (Table 12, V048880, genotype 10I + 33F + 77I + 90M) was 1.3 fold, the “Fold change in IC50” value (Table 12, V052940, genotype 71V) was 0.7 fold and the “Fold change in IC50” value (Table 12, V052942, genotype 10I + 71V) was 0.6 fold. For the same compound, the “Fold change in IC50” value (Table 12, V052943, genotype 10I + 90M) was 0.5 fold, the “Fold change in IC50” value (Table 12, V052944, genotype 10I + 90M) was 0.5 fold and the “Fold change in IC50” value (Table 12, V052945, genotype 77I + 90M) was 0.6 fold. The “Fold change in IC50” value (Table 12, V052946, genotype 71V + 90M) was 0.9 fold, the “Fold change in IC50” value (Table 12, V052947, genotype 10I + 77I + 90M) was 2.9 fold and the “Fold change in IC50” value (Table 12, V052948, genotype 10I + 71V + 90M) was 8.6 fold. For the same compound, the “Fold change in IC50” value (Table 12, V052949, genotype 10I + 71V + 77I + 90M) was 2.7 fold, the “Fold change in IC50” value (Table 12, V052950, genotype 33F) was 0.6 fold and the “Fold change in IC50” value (Table 12, V052951, genotype 33F + 77I) was 0.4 fold. For the same compound, the “Fold change in IC50” value (Table 12, V052953, genotype 10I + 33F + 77I) was 0.8 fold, the “Fold change in IC50” value (Table 12, V052954, genotype 33F + 77I + 90M) was 1.7 fold and the “Fold change in IC50” value (Table 12, V052955, genotype 33F + 71V + 90M) was 5.3 fold. For the same compound, the “Fold change in IC50” value (Table 12, V052977, genotype 10I + 33F + 54M) was 1.8 fold, the “Fold change in IC50” value (Table 12, V052978, genotype 10I + 33F + 54M + 71V + 90M) was 5.4 fold and the “Fold change in IC50” value (Table 12, V052979, genotype 10I + 54M) was 1.8 fold. The “Fold change in IC50” value (Table 12, V052980, genotype 10I + 54M + 90M) was 1.3 fold, the “Fold change in IC50” value (Table 12, V052981, genotype 10I + 54M + 71V + 90M) was 3.2 fold and the “Fold change in IC50” value (Table 12, V052982, genotype 10I + 54M + 71V + 77I + 90M) was 2.4 fold. For the same compound, the “Fold change in IC50” value (Table 12, V053832, genotype 10I + 33F) was 0.4 fold.
